Measurements published in paper PMC8011931, “Identification, Structure–Activity Relationship, and Biological Characterization of 2,3,4,5-Tetrahydro-1H-pyrido[4,3-b]indoles as a Novel Class of CFTR Potentiators” (Journal of Medicinal Chemistry, 2020).

Legend:
Type in all cases: cell-based
[1] = biological target: T1, G551D-CFTR (Homo sapiens, UniProt P13569, G551D); experiment: HS-YFP-based assay on G551D-CFTR FRT cells
T1 construct: expressed in transfected cells
Experimental: The primary hits were confirmed by testing them at different concentrations, in order to extrapolate the dose–response relationship. First, we focused on the F508del mutant. The compounds were tested in the low micromolar range, in the presence of forskolin (10 μM), on F508del-CFTR FRT cells following rescue of the trafficking defect by low-temperature incubation, as done for the primary screening. The most interesting hits were subsequently tested for their ability to overcome the more severe gating defect of pure class III mutant using FRT cells stably expressing G551D-CFTR (Figure 3B).
A small set of selected potentiators with good efficacy and potency on F508del-CFTR FRT cells (Figure 6A) was also tested at three concentrations on G551D-CFTR FRT cells (Figure 6B).
FRT cells stably expressing mutant F508del-CFTR or G551D-CFTR and the halide-sensitive yellow fluorescent protein (HS-YFP) YFP-H148Q/I152L and CFBE41o-cells stably expressing F508del-CFTR and HS-YFP were generated as previously described.[21],[57] FRT cells were cultured using the Coon’s modification of Ham’s F12 medium, while CFBE41o-cells were cultured in the modified Eagle’s medium. Media were supplemented with 10% fetal calf serum, 2 mM L-glutamine, 100 U/mL of penicillin, and […] of streptomycin. […]
(§1) Prior assay, cells were washed with phosphate-buffered saline (PBS) containing (in mM) 137 NaCl, 2.7 KCl, 8.1 Na2HPO4, 1.5 KH2PO4, 1 CaCl2, and 0.5 MgCl2. […] Cells were then transferred to microplate readers (FluoStar Optima; BMG Labtech, Offenburg, Germany) for CFTR activity determination. The plate readers were equipped with high-quality excitation (HQ500/20X: 500 ± 10 nm) and emission (HQ535/30M: 535 ± 15 nm) filters for YFP (Chroma Technology). The assay consisted of a continuous 14 s fluorescence reading, 2 s before and 12 s after injection of 165 μL of an iodide-containing solution (PBS with Cl^– replaced by I^–; final I^– concentration 100 mM). Data were normalized to the initial background-subtracted fluorescence. […]

[2] = biological target: T2, F508del-CFTR (Homo sapiens, UniProt P13569, DEL508-508); experiment: 24 h co-incubation with correctors, YFP-based functional assay on F508del-CFTR CFBE41o- cells; design: expressed in transfected cells; conditions: 39 5 μM with VX-809 1 μM or ARN23765 10 nM
Experimental: Recent studies have shown that most potentiators have an undesired activity on F508del-CFTR protein processing/trafficking.[39],[40] According to these studies, chronic incubation with potentiators results in decreased activity of VX-809 as a corrector. To test the effect of our potentiators, we incubated F508del-CFTR CFBE41o-cells for 24 h with tetrahydro-γ-carboline 39 (5 μM) together with VX-809 (1 μM) and ARN23765 (10 nM), the picomolar affinity corrector recently reported by our research team.[35] […]
as §1

[3] = biological target: T2, F508del-CFTR; experiment: TEER/PD measurements on primary HBE cells from an F508del/F508del CF patient, 24 h co-incubation with corrector; design: primary HBE cells from an F508del/F508del CF patient; endogenous in cells; host or cells: primary human bronchial epithelial cells, F508del/F508del CF patient; conditions: 39 0.5 μM with ARN23765 10 nM
Experimental: A similar combination study was conducted on primary HBE cells from an F508del/F508del CF patient. The effect of the compound was assessed with the transepithelial electrical resistance and potential difference (TEER/PD) technique.[41] Epithelia were treated for 24 h with a vehicle, a corrector ARN23765 alone (10 nM), or ARN23765 (10 nM) plus the potentiator 39 (0.5 μM). TEER and PD values were taken at resting, after the addition of apical amiloride, after maximal stimulation of F508del-CFTR activity (with forskolin plus genistein), and after blocking with PPQ-102. For each epithelium, we measured the difference in the short-circuit current, Ieq (calculated from the TEER and PD values), before and after blocking with PPQ-102 (ΔIeq). The results obtained on primary epithelia confirmed that the rescue of CFTR activity by the corrector ARN23765 was not affected by coincubation with the novel potentiator 39 (Figure 7B).
Primary bronchial epithelial cells were cultured as previously described.[58] In brief, epithelial cells were cultured in a serum-free medium (LHC9 mixed with RPMI 1640, 1:1) supplemented with hormones and supplements to support cell number amplification. […] Differentiation of cells to form a tight epithelium was monitored by measuring transepithelial electrical resistance and potential difference with an epithelial voltohmmeter (EVOM1, World Precision Instruments). […]

T1 sequence (P13569 whole entry G551D): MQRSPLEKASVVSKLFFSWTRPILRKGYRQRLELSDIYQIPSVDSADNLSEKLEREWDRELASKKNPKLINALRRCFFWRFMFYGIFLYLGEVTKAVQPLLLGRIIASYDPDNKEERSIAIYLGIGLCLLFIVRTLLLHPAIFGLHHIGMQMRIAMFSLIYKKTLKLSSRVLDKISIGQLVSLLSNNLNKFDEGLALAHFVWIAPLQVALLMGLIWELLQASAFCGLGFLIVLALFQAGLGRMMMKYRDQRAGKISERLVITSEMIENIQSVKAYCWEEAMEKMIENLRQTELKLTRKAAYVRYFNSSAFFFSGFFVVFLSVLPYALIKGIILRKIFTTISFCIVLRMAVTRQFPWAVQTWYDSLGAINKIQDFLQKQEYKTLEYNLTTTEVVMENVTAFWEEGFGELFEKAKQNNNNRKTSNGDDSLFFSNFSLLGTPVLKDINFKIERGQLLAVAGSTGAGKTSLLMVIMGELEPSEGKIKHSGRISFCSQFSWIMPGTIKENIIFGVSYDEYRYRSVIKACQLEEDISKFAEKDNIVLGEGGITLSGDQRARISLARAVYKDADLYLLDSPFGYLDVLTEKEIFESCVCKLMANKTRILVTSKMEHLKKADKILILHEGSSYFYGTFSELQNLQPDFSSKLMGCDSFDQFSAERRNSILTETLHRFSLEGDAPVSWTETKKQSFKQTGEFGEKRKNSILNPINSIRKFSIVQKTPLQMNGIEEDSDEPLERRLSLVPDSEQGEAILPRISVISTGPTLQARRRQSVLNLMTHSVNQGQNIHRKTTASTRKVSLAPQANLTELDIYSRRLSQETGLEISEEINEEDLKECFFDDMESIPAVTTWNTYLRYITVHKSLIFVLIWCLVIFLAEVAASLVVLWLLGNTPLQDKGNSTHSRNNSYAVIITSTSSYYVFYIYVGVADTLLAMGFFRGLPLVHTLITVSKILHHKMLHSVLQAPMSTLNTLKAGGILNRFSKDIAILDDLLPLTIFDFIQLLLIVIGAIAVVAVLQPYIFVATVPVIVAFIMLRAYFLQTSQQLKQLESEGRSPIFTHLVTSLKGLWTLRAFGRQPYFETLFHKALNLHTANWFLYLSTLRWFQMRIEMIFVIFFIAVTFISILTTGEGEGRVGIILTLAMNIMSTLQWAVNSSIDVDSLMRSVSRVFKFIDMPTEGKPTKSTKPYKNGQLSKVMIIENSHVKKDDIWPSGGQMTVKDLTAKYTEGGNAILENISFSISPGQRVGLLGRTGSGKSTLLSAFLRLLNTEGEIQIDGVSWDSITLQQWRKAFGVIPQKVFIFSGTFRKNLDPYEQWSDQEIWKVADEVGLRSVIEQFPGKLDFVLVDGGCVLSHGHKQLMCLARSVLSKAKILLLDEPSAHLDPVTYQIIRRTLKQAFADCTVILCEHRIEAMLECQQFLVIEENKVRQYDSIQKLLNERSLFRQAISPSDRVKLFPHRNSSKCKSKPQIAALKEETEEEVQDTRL
T2 sequence (P13569 with tags, fused parts or gaps DEL508-508): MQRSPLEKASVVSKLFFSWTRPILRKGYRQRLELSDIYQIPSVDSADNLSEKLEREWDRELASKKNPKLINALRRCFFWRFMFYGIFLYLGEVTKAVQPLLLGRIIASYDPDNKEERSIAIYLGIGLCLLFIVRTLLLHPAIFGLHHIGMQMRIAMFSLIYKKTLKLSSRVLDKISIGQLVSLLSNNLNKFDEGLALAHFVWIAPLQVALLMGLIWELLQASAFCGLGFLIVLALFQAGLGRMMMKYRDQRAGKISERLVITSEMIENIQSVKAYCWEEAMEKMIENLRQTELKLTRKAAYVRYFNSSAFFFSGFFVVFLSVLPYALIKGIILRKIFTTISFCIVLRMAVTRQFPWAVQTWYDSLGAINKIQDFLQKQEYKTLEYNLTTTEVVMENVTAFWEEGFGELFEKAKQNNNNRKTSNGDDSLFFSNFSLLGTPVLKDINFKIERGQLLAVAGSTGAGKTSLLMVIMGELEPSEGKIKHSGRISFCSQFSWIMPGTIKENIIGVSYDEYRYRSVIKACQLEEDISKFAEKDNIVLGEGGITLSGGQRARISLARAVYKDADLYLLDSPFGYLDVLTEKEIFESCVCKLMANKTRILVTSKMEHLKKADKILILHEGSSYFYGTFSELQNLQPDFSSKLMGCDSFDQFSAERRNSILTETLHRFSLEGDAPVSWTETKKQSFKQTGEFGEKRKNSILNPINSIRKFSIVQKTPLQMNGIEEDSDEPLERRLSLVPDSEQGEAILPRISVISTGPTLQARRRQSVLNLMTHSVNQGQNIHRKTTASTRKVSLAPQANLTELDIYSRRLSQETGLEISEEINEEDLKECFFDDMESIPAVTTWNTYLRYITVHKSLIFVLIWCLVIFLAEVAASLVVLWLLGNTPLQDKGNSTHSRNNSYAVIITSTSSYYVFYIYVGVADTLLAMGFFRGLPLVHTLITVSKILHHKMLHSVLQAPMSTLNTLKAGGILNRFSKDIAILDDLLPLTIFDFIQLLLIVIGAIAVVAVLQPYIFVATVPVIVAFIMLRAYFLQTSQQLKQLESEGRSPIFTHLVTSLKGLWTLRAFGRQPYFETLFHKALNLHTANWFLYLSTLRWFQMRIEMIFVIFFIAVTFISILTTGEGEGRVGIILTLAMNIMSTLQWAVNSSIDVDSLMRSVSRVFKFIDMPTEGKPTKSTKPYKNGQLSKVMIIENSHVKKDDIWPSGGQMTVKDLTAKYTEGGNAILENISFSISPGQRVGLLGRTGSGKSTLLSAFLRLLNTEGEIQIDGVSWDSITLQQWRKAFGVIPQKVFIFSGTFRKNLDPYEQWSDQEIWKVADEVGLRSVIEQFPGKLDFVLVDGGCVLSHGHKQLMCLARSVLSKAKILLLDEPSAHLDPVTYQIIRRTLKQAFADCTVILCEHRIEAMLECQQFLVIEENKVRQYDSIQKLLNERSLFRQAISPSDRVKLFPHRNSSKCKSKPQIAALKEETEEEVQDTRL

SMILES: Cc1ccc(F)c2[nH]c3c(c12)CN(C(=O)c1cc(C(F)(F)F)[nH]n1)[C@H](C)C3 [Compound 39, (R)-(6-Fluoro-3,9-dimethyl-1,3,4,5-tetrahydro-2H-pyrido[4,3-b]indol-2-yl)-(5-(trifluoromethyl)-1H-pyrazol-3-yl)methanone]
- activity compared to VX-770 on G551D-CFTR FRT cells ([1]; at 0.56 μM): decrease in activity
- activity compared to VX-770 on G551D-CFTR FRT cells ([1]; at the highest concentrations (20–3.3 μM)): comparable pattern of activity
- potency ranking on G551D-CFTR FRT cells ([1]; tested at three concentrations, Figure 6B): the most potent one
- effect on rescue efficacy of VX-809 or ARN23765 [2]: did not affect the rescue efficacy
- effect on rescue of CFTR activity by the corrector ARN23765 (ΔIeq) [3]: not affected
